According to PubChem BioAssay AID1996:
Values after ≈ are worked out from the molar mass of the structure shown.

Details: buffer; pH 7.4; 200.0 µM

| Compound | solubility kinetic |
| --- | --- |
| O=C(OCC(=O)c1ccc[nH]1)c1cncc(Br)c1 | 24.2 µg/mL (≈ 78.3 µM) |
| Cc1[nH]c2ccccc2c1CCNCc1ccco1.Cl | > 43.6 µg/mL |
| Cc1ccc(C(=O)CCC(=O)N2CCC(C(N)=O)CC2)cc1 | 43.5 µg/mL (≈ 144 µM) |
| CCOc1cc(C)c(S(=O)(=O)NCCCn2ccnc2)cc1C | 41.2 µg/mL (≈ 122 µM) |
| COC(=O)c1ccc(CNC(=O)c2ccc(S(=O)(=O)N3CCCCCC3)cc2)cc1 | 3.6 µg/mL (≈ 8.36 µM) |
| NC(=O)c1cc(NC(=O)COC(=O)CCCN2C(=O)c3cccc4cccc(c34)C2=O)cc(C(N)=O)c1 | 4.9 µg/mL (≈ 9.75 µM) |
| CC(C)OCCCNC(=O)CN1CCN(Cc2ccc(Cl)cc2)C1=O | > 55.2 µg/mL |
| CN1CCN(C2CCN(c3cccc(Cl)c3)CC2)CC1CCO (centres undefined) | 36.8 µg/mL (≈ 109 µM) |
| CCCCCCC(O)(CCN1CCCCC1)c1ccccc1.Cl (centres undefined) | 49.3 µg/mL |
| O=C(C[n+]1ccc(/C=N/O)cc1)NC(=O)Nc1ccccc1 | 41.6 µg/mL |
| CC(C)=CC(=O)Nc1cccc(S(=O)(=O)NC2=NCCCCC2)c1 | > 52.4 µg/mL |
| COc1cc2c(cc1OC)CN(c1ncccc1[N+](=O)[O-])CC2 | 5.6 µg/mL (≈ 17.8 µM) |
| CCN(CC)CC#CC(OC)(c1ccccc1)c1ccccc1.Cl | 29.5 µg/mL |
| CCCCN(C)S(=O)(=O)c1cc2c3c(c1)CCC(=O)N3CCC2 | 48.6 µg/mL (≈ 144 µM) |
| O=C(O)/C=C\C(=O)Nc1ccc(F)c(F)c1F | 34.3 µg/mL (≈ 140 µM) |
| CCN1CCN(C(=O)/C=C/c2ccc(OC)c(OC)c2)CC1 | > 45.7 µg/mL |
| CN1CCCC(OC(=O)c2cccc(Cl)c2)C1.Cl (centres undefined) | > 43.5 µg/mL |
| CS(=O)(=O)N1CCC(CO)(Cc2ccccc2C(F)(F)F)CC1 | 48.7 µg/mL (≈ 139 µM) |
| O=C1Cc2cc(S(=O)(=O)Nc3ccc(N4CCOCC4)cc3)ccc2N1 | > 56 µg/mL |
| COc1ccc(NCCC(O)c2ccc(Cl)cc2)cc1 (centres undefined) | 40.5 µg/mL (≈ 139 µM) |
| Cc1cccnc1Nc1ncnc(N)c1[N+](=O)[O-] | 36.3 µg/mL (≈ 147 µM) |
| Cc1ccc(F)cc1NC(=O)c1ccc(OCC2CCCO2)cc1 (centres undefined) | > 49.4 µg/mL |
| CCOC(=O)[C@@H]1CCN(Cc2ccccc2)C[C@H]1c1ccccc1.Cl | 30.7 µg/mL |
| CC(C)N(C(=O)Nc1ccc2nccnc2c1)C(C)C | 2.3 µg/mL (≈ 8.44 µM) |
| O=Cc1ccc(Oc2ncccn2)cc1 | > 30 µg/mL |
| CCOc1ccc(N(CC(=O)Nc2cccc(C)c2)S(C)(=O)=O)cc1 | 35.6 µg/mL (≈ 98.2 µM) |
| FC(F)(F)c1ccc2c(c1)NCC1CCCN21 (centres undefined) | 13 µg/mL (≈ 53.7 µM) |
| O=S(=O)(c1ccc(F)c(F)c1)N1CCC2(CC1)OCCO2 | > 47.9 µg/mL |
| COc1ccc(CCNCc2sccc2C)cc1.Cl | > 44.7 µg/mL |
| FC(F)(F)c1cccc(NC(=S)Nc2ccc(Cl)c(Cl)c2)c1 | 1.5 µg/mL (≈ 4.11 µM) |

Now from value to compound:

| solubility kinetic | Compound |
| --- | --- |
| 12.5 µg/mL (≈ 53.3 µM) | O=c1[nH]c2ccccc2c2oc(CCl)nc12 |
| 21 µg/mL (≈ 65.1 µM) | Cc1ccc(C)c(NC(=O)C(C)N2C(=O)c3ccccc3C2=O)c1 (centres undefined) |
| 3.5 µg/mL (≈ 7.55 µM) | CC(C)Cn1c(N)c(C(=O)COC(=O)c2ccccc2C(=O)c2ccccc2)c(=O)n(C)c1=O |
| > 38 µg/mL | Cc1ccc(O)c(CNc2nc3ccccc3[nH]2)c1 |
| 2.9 µg/mL (≈ 8.23 µM) | O=C1C2C3c4ccccc4C(c4ccccc43)[C@@H]2C(=O)N1c1ccccn1 (some centres undefined) |
| > 48.9 µg/mL | O=C(CNS(=O)(=O)c1ccccc1)Nc1ccc(F)cc1F |
| > 45.2 µg/mL | Cc1noc(C)c1CN1C(=O)c2ccc([N+](=O)[O-])cc2C1=O |
| 31.5 µg/mL (≈ 144 µM) | Cc1ccc(-c2noc(N=O)c2NO)cc1 |
| > 40.1 µg/mL | O=C(Nc1ccc(Cl)c(Cl)c1)c1cccnc1 |
| < 0.3 µg/mL | CC(=O)Nc1nc(-c2ccc3ccccc3c2)cs1 |
| > 43 µg/mL | Cc1ccc(C(=O)Nc2ccccc2N2CCCC2)s1 |
| > 49.3 µg/mL | COc1ccc(NC(=O)CN(C)C(=O)c2ccccc2OC)cc1 |
| < 0.2 µg/mL | Cc1ccc(N=C2NC(=O)/C(=C/c3cccnc3)S2)cc1C |
| 9.9 µg/mL (≈ 33 µM) | CCOn1c(=O)c(-c2ccc(F)cc2)[n+]([O-])c2ccccc21 |
| 2 µg/mL | Cl.Nc1nc2ccccc2n1C(=O)c1cccs1 |
| > 58.2 µg/mL | O=C(Nc1ccccc1)c1cc(S(=O)(=O)Nc2cccnc2)ccc1Cl |
| 4.8 µg/mL (≈ 16.9 µM) | Cc1cc(NC(=O)COc2ccc(F)c(Cl)c2)no1 |
| 1.1 µg/mL (≈ 3.5 µM) | CC(NS(=O)(=O)c1ccccc1Cl)C1CC2CCC1C2 (centres undefined) |
| 18 µg/mL (≈ 63.5 µM) | Cc1cc(C(=O)Nc2ncc(C)s2)c2ccccc2n1 |
| 0.4 µg/mL (≈ 1.28 µM) | S=C1NCN(CCc2ccccc2)CN1Cc1ccccc1 |
| > 48.8 µg/mL | Cc1cccc(NC(=O)CSc2n[nH]c(-c3cccnc3)n2)c1 |
| > 33 µg/mL | CCc1ccc(C(=O)Nc2cc(C)on2)o1 |
| 32.5 µg/mL (≈ 133 µM) | CC(C)C(=O)NCc1cc(-c2ccccc2)no1 |
| > 49.9 µg/mL | O=C(CCn1c(=O)oc2cc(Cl)ccc21)Nc1ccc(O)cc1 |
| 1 µg/mL (≈ 3.37 µM) | Cc1ccc(-c2nc3ccccc3nc2-c2ccccc2)cc1 |
| 28.7 µg/mL (≈ 103 µM) | CC(C)(C)C(=O)N1c2ccccc2CCc2ccccc21 |
| 44.4 µg/mL (≈ 135 µM) | CCN(CC)CC(O)CN1c2ccccc2Sc2ccccc21 (centres undefined) |
| 5 µg/mL (≈ 20.8 µM) | CCCc1nc2cc(Cl)c([N+](=O)[O-])cc2o1 |
| < 0.7 µg/mL | CC(C)(C)C1COc2ccccc2N1C(=O)c1cccc(Cl)c1 (centres undefined) |
